Measured values: US20100286147A1 (priority 2008, published 2010)

How the values were obtained:
Type in all cases: in vivo
[1] = system: Phytophthora infestans; conditions: tomato seedlings, sprayed 17 h after inoculation; visual rating, 100 = 100% disease control, 0 = no control relative to controls; test concentration not given
[2] = system: Phytophthora infestans; conditions: tomato seedlings, sprayed the day before inoculation; visual rating, 100 = 100% disease control, 0 = no control relative to controls; test concentration not given
[3] = system: Plasmopara viticola; assay: Test A: grape downy mildew, grape seedlings sprayed after inoculation; conditions: sprayed 24 h after inoculation, visual rating, 100 = 100% disease control, 0 = no control relative to controls, test concentration not given
Excerpt: General protocol for preparing test suspensions for Test A-C: The test compounds were first dissolved in acetone in an amount equal to 3% of the final volume and then suspended at the desired concentration (in ppm) in acetone and purified water (50/50 mix by volume) containing 250 ppm of the surfactant Trem® 014 (polyhydric alcohol esters). The resulting test suspensions were then used in Tests A-C. Spraying a 40 ppm test suspension to the point of run-off on the test plants was equivalent to a rate of 100 g/ha.
Grape seedlings were inoculated with a spore suspension of Plasmopara viticola (the causal agent of grape downy mildew) and incubated in a saturated atmosphere at 20° C. for 24 h. After a short drying period, the test suspension was sprayed to the point of run-off on the grape seedlings, which were then moved to a growth chamber at 20° C. for 5 days, after which time the grape seedling were placed back into a saturated atmosphere at 20° C. for 24 h. Upon removal, visual disease ratings were made.
Results for Tests A-C are given in Table A. In the table, a rating of 100 indicates 100% disease control and a rating of 0 indicates no disease control (relative to the controls).

SMILES | Percent Disease Control Test C [1] [%] | Percent Disease Control Test B [2] [%] | Percent Disease Control Test A [3] [%]
Cc1cc(C(F)(F)F)nn1CC(=O)N1CCC(c2nc(C3=NOC(c4cccc(-n5cncn5)c4)C3)cs2)CC1 (stereo not drawn) [Compound 1, 1-[4-[4-[4,5-dihydro-5-[3-(1H-1,2,4-triazol-1-yl)phenyl]-3-isoxazolyl]-2-thiazolyl]-1-piperidinyl]-2-[5-methyl-3-(trifluoromethyl)-1H-pyrazol-1-yl]ethanone] | 99 | 100 | 91
Cc1cccc(C2CC(c3csc(C4CCN(C(=O)Cn5nc(C(F)(F)F)cc5C)CC4)n3)=NO2)c1-n1c(O)nn(C)c1=O (stereo not drawn) [Compound 8] | 53 | 100 | 0
Cc1cc(C(F)(F)F)nn1CC(=O)N1CCC(c2nc(C3=NOC(c4ccccc4-c4ccccc4)C3)cs2)CC1 (stereo not drawn) [Compound 16] | 99 | 100 | 99
Cc1cc(C(F)(F)F)nn1CC(=O)N1CCC(c2nc(C3=NOC(c4c(F)cccc4-n4cncn4)C3)cs2)CC1 (stereo not drawn) [Compound 11] | 99 | 100 | 99
Cc1cc(C(F)(F)F)nn1CC(=O)N1CCC(c2nc(C3=NOC(c4ccccc4N4CCN(C)CC4)C3)cs2)CC1 (stereo not drawn) [Compound 10] | 93 | 100 | 10
Cc1cc(C(F)(F)F)nn1CC(=O)N1CCC(c2nc(C3=NOC(c4ccccc4C(=O)c4ccccc4)C3)cs2)CC1 (stereo not drawn) [Compound 9] | 17 | 100 | 0
Cc1cc(C(F)(F)F)nn1CC(=O)N1CCC(c2nc(C3=NOC(c4ccccc4Oc4ccccc4)C3)cs2)CC1 (stereo not drawn) [Compound 3] | 93 | 100 | 97
Cc1cc(C(F)(F)F)nn1CC(=O)N1CCC(c2nc(C3=NOC(c4ccc(-c5ccccc5)cc4)C3)cs2)CC1 (stereo not drawn) [Compound 2] | 32 | 90 | 76
Cc1cc(C(F)(F)F)nn1CC(=O)N1CCC(c2nc(C3=NOC(N4C(=O)NC(C)(c5ccccc5)C4=O)C3)cs2)CC1 (stereo not drawn) [Compound 15] | 97 | 100 | 92
COc1nn(C)c(=O)n1-c1c(C)cccc1C1CC(c2csc(C3CCN(C(=O)Cn4nc(C(F)(F)F)cc4C)CC3)n2)=NO1 (stereo not drawn) [Compound 12] | 99 | 100 | 31
Cc1ccc(C)c(NC(=O)N2CCC(c3nc(C4=NOC(c5ccccc5-n5cncn5)C4)cs3)CC2)c1 (stereo not drawn) [Compound 19] | 99 | 100 | 99
Cc1ccc(C)c(NC(=O)N2CCC(c3nc(C4=NOC(c5ccccc5-c5ccccc5)C4)cs3)CC2)c1 (stereo not drawn) [Compound 17, 4-[4-(5-[1,1′-biphenyl]-2-yl-4,5-dihydro-3-isoxazolyl)-2-thiazolyl]-N-(2,5-dimethylphenyl)-1-piperidinecarboxamide] | 99 | 100 | 98
Cc1cc(C(F)(F)F)nn1CC(=O)N1CCC(c2nc(C3=NOC(c4ccccc4Cc4ccccc4)C3)cs2)CC1 (stereo not drawn) [Compound 7] | 86 | 99 | 73
Cc1cc(C(F)(F)F)nn1CC(=O)N1CCC(c2nc(C3=NOC(n4ccc(-c5ccccc5)n4)C3)cs2)CC1 (stereo not drawn) [Compound 13] | 93 | 100 | 56
Cc1ccc(C)c(NC(=O)N2CCC(c3nc(C4=NOC(c5ccccc5Oc5ccccc5)C4)cs3)CC2)c1 (stereo not drawn) [Compound 18] | 58 | 93 | 67
Cc1cc(C(F)(F)F)nn1CC(=O)N1CCC(c2nc(C3=NOC(c4ccccc4N4CCCCC4)C3)cs2)CC1 (stereo not drawn) [Compound 4] | 83 | 99 | 58
Cc1cc(C(F)(F)F)nn1CC(=O)N1CCC(c2nc(C3=NOC(c4ccccc4N4CCOCC4)C3)cs2)CC1 (stereo not drawn) [Compound 6] | 99 | 100 | 87
Cc1cc(C(F)(F)F)nn1CC(=O)N1CCC(c2nc(C3=NOC(c4ccccc4-n4cncn4)C3)cs2)CC1 (stereo not drawn) [Compound 5] | 99 | 100 | 98
